Values after ≈ are worked out from the molar mass of the structure shown.

The test has as its system Klebsiella pneumoniae PC1602. The test can be described thus: Minimal inhibitory concentration, agar dilution method. Type of test: cell-based. The source says:
When determined according to the agar dilution method, the penicillins (I) afford the minimal inhibitory concentrations against test microorganisms as shown in Table 2.
A general note: Agar dilution tests growth on a series of plates holding different concentrations.
The compound `CC1(C)S[C@@H]2[C@H](NC(=O)C(NC(=O)c3cnc4cccnc4c3O)c3ccc(O)cc3)C(=O)N2[C@H]1C(=O)O` (mixture of isomers) [Example 2, DL-α-(4-hydroxy-1,5-naphthyridine-3-carboxamido)-p-hydroxybenzylpenicillin] showed an MIC of 25 µg/mL. In the case of `CCOC(=O)Oc1ccc(C(NC(=O)c2cnc3ccc(N(C)C)nc3c2O)C(=O)N[C@@H]2C(=O)N3[C@@H]2SC(C)(C)[C@@H]3C(=O)O)cc1` (mixture of isomers) [Example 3, DL-α-(4-hydroxy-6-dimethylamino-1,5-naphthyridine-3-carboxamido)-p-ethoxycarbonyloxybenzylpenicillin], the MIC turned out to be 3.13 µg/mL. `CC1(C)S[C@@H]2[C@H](NC(=O)C(NC(=O)c3cnc4ccccc4c3O)c3ccc(O)cc3)C(=O)N2[C@H]1C(=O)O` (mixture of isomers) [Example 6, DL-α-(4-hydroxyquinoline-3-carboxamido)-p-hydroxybenzylpenicillin] showed an MIC of 25 µg/mL. `CC1(C)S[C@@H]2[C@H](NC(=O)C(C(=O)O)c3ccccc3)C(=O)N2[C@H]1C(=O)O` (stereo partly shown) [Carbenicillin, reference compound] gave a minimal inhibitory concentration (MIC) above 200 µg/mL.

`CC1(C)S[C@@H]2[C@H](NC(=O)[C@H](NC(=O)c3cnc4cccnc4c3O)c3ccc(O)cc3)C(=O)N2[C@H]1C(=O)O` [Example 1, D-α-(4-hydroxy-1,5-naphthyridine-3-carboxyamido)-p-hydroxybenzylpenicillin] yielded an MIC of 12.5 µg/mL (≈ 23.3 µM). `CC(C)(C)C(=O)Oc1ccc([C@@H](NC(=O)c2cnc3ccccc3c2O)C(=O)N[C@@H]2C(=O)N3[C@@H]2SC(C)(C)[C@@H]3C(=O)O)cc1` [Example 4, D-α-(4-hydroxyquinoline-3-carboxamido)-p-pivaloyloxybenzylpenicillin]: the MIC is 12.5 µg/mL (≈ 20.1 µM). The compound `CCOC(=O)Oc1c(C(=O)N[C@@H](C(=O)N[C@@H]2C(=O)N3[C@@H]2SC(C)(C)[C@@H]3C(=O)O)c2ccc(OC(=O)OCc3ccccc3)cc2)cnc2cccnc12` [Example 5, D-α-(4-ethoxycarbonyloxy-1,5-naphthyridine-3-carboxamido)-p-benzyloxycarbonyloxybenzylpenicillin] showed an MIC of 12.5 µg/mL (≈ 16.8 µM). On the same count and under the same terms, as for `Cc1ccc2c(O)c(C(=O)N[C@@H](C(=O)N[C@@H]3C(=O)N4[C@@H]3SC(C)(C)[C@@H]4C(=O)O)c3ccc(O)cc3)cnc2n1` [Example 7, D-α-(4-hydroxy-7-methyl-1,8-naphthyridine-3-carboxamido)-p-hydroxybenzylpenicillin], the figure is 12.5 µg/mL (≈ 22.7 µM).

Regarding `CC1(C)S[C@@H]2[C@H](NC(=O)[C@H](NC(=O)c3nnc4ccccc4c3O)c3ccc(O)cc3)C(=O)N2[C@H]1C(=O)O` [Example 8, D-α-(4-hydroxycinnoline-3-carboxamido)-p-hydroxybenzylpenicillin], the MIC came out at 25 µg/mL (≈ 46.5 µM). On to `CCOC(=O)Oc1ccc([C@@H](NC(=O)c2cnc3cccnc3c2O)C(=O)N[C@@H]2C(=O)N3[C@@H]2SC(C)(C)[C@@H]3C(=O)O)cc1` [Example 9, D-α-(4-hydroxy-1,5-naphthyridine-3-carboxamido)-p-ethoxycarbonyloxybenzylpenicillin], for which the MIC was 12.5 µg/mL (≈ 20.5 µM). The same measure, in the same setting: with `CCOC(=O)Oc1ccc([C@@H](NC(=O)c2cnc3cc(Cl)ccc3c2O)C(=O)N[C@@H]2C(=O)N3[C@@H]2SC(C)(C)[C@@H]3C(=O)O)cc1` [Example 10] the figure was 3.13 µg/mL (≈ 4.87 µM); with `CC1(C)S[C@@H]2[C@H](NC(=O)[C@H](NC(=O)c3cnc4cc(C(F)(F)F)ccc4c3O)c3ccc(O)cc3)C(=O)N2[C@H]1C(=O)O` [Example 11], 0.78 µg/mL (≈ 1.29 µM). Still for that read-out and setting: with `CCOC(=O)Oc1ccc([C@@H](NC(=O)c2cnc3ccccc3c2OC(=O)OCC)C(=O)N[C@@H]2C(=O)N3[C@@H]2SC(C)(C)[C@@H]3C(=O)O)cc1` [Example 12] the figure was 25 µg/mL (≈ 36.7 µM); with `CC1(C)S[C@@H]2[C@H](NC(=O)[C@H](NC(=O)c3cnc4ccccc4c3O)c3cccc(O)c3)C(=O)N2[C@H]1C(=O)O` [Example 13], 25 µg/mL (≈ 46.6 µM). Still for that read-out and setting: as for `CC1(C)S[C@@H]2[C@H](NC(=O)[C@H](NC(=O)c3cnc4ccccc4c3O)c3ccc(O)c(Cl)c3)C(=O)N2[C@H]1C(=O)O` [Example 14], the figure is 25 µg/mL (≈ 43.8 µM); as for `CCOC(=O)Oc1ccc([C@@H](NC(=O)c2cnc3nc(C)ccc3c2O)C(=O)N[C@@H]2C(=O)N3[C@@H]2SC(C)(C)[C@@H]3C(=O)O)cc1` [Example 15], 12.5 µg/mL (≈ 20 µM).

For the compound `CC1(C)S[C@@H]2[C@H](NC(=O)C(NC(=O)c3cnc4cccnc4c3O)c3cccc(O)c3)C(=O)N2[C@H]1C(=O)O` (stereo partly shown) [Example 16], inhibition of growth (MIC) required 25 µg/mL (≈ 46.5 µM). The same measure, in the same setting: as for `CCOC(=O)Oc1ccc([C@@H](NC(=O)c2cnc3ccc(SC)nc3c2O)C(=O)N[C@@H]2C(=O)N3[C@@H]2SC(C)(C)[C@@H]3C(=O)O)cc1` [Example 17], the figure is 3.13 µg/mL (≈ 4.77 µM); as for `Cc1ccc2ncc(C(=O)N[C@@H](C(=O)N[C@@H]3C(=O)N4[C@@H]3SC(C)(C)[C@@H]4C(=O)O)c3ccc(O)cc3)c(O)c2n1` [Example 18], 12.5 µg/mL (≈ 22.7 µM). Turning to `COc1ccc2ncc(C(=O)N[C@@H](C(=O)N[C@@H]3C(=O)N4[C@@H]3SC(C)(C)[C@@H]4C(=O)O)c3ccc(O)cc3)c(O)c2n1` [Example 19], the MIC was found to be 12.5 µg/mL (≈ 22 µM). Same read-out and setting: with `CCOC(=O)Oc1ccc([C@@H](NC(=O)c2cnc3cc([N+](=O)[O-])ccc3c2O)C(=O)N[C@@H]2C(=O)N3[C@@H]2SC(C)(C)[C@@H]3C(=O)O)cc1` [Example 20] the figure was 3.13 µg/mL (≈ 4.79 µM); with `CC1(C)S[C@@H]2[C@H](NC(=O)[C@H](NC(=O)c3cnc4ccc(O)nc4c3O)c3ccc(O)cc3)C(=O)N2[C@H]1C(=O)O` [Example 22], 12.5 µg/mL (≈ 22.6 µM); with `CCOC(=O)Oc1ccc([C@@H](NC(=O)c2cnc3ccc(NC(C)=O)nc3c2O)C(=O)N[C@@H]2C(=O)N3[C@@H]2SC(C)(C)[C@@H]3C(=O)O)cc1` [Example 23], 25 µg/mL (≈ 37.5 µM). Still for that read-out and setting: as for `CC1(C)S[C@@H]2[C@H](NC(=O)[C@H](NC(=O)c3cnc4ccc(N)nc4c3O)c3ccc(O)cc3)C(=O)N2[C@H]1C(=O)O` [Example 24], the figure is 12.5 µg/mL (≈ 22.6 µM). The same measure, in the same setting: with `CCOC(=O)Oc1ccc([C@@H](NC(=O)c2cnc3ccc(N(C)C)nc3c2O)C(=O)N[C@@H]2C(=O)N3[C@@H]2SC(C)(C)[C@@H]3C(=O)O)cc1Cl` [Example 25] the figure was 12.5 µg/mL (≈ 18.2 µM).

In turn, `CC1(C)S[C@@H]2[C@H](NC(=O)C(NC(=O)c3cnc4cccnc4c3O)c3cccc(O)c3)C(=O)N2[C@H]1C(=O)O` (stereo partly shown) [Example 26] displayed a Minimal inhibitory concentration of 25 µg/mL (≈ 46.5 µM). `CC1(C)S[C@@H]2[C@H](NC(=O)[C@H](NC(=O)c3cc4ccccc4nc3O)c3ccc(O)cc3)C(=O)N2[C@H]1C(=O)O` [Example 27] had an MIC of 12.5 µg/mL (≈ 23.3 µM). For `COc1nc(OC)c2c(O)c(C(=O)N[C@@H](C(=O)N[C@@H]3C(=O)N4[C@@H]3SC(C)(C)[C@@H]4C(=O)O)c3ccc(O)cc3)cnc2n1` [Example 28], it took 12.5 µg/mL (≈ 20.9 µM) to inhibit growth (MIC). For `CC1(C)S[C@@H]2[C@H](NC(=O)[C@H](NC(=O)c3cnc4ccncc4c3O)c3ccc(O)cc3)C(=O)N2[C@H]1C(=O)O` [Example 29], the MIC is 25 µg/mL (≈ 46.5 µM).

For the compound `CC(C)COC(=O)Oc1ccc([C@@H](NC(=O)c2cnc3nc(N(C)C)ncc3c2O)C(=O)N[C@@H]2C(=O)N3[C@@H]2SC(C)(C)[C@@H]3C(=O)O)cc1` [Example 30], the MIC worked out at 12.5 µg/mL (≈ 18.3 µM).

Take `Cc1nc(C)c2c(O)c(C(=O)N[C@@H](C(=O)N[C@@H]3C(=O)N4[C@@H]3SC(C)(C)[C@@H]4C(=O)O)c3ccc(O)cc3)cnc2n1` [Example 31]: 12.5 µg/mL (≈ 22.1 µM) was the least that counted as inhibitory (MIC).

What is called MIC is the lowest concentration that inhibits growth of the organism. Read a low MIC as a more susceptible organism.

These data come from patent US4003887A, “Novel penicillins and their preparation” (Sumitomo Chemical Company, Limited, priority 1972, dated 1977).
